# Laboratory results reported in paper PMC5997768 (2018).
# Tested on: rats with CCI
# Conditions: rat, in vivo, iv
compound,measurement,value
"C=CC[N+]1(C)CC[C@]23c4c5ccc(O)c4O[C@H]2C(=O)CC[C@@]3(O)[C@H]1C5 (some centres unmarked) [NLXM, naloxone methiodide]",Effect on FF3-induced analgesia (PPT) in ipsilateral limbs,abolished
same,Effect on PPT in contralateral paws,No changes were observed
